From patent US8980850B2, “Administration of a NEDD8-activating enzyme inhibitor and hypomethylating agent” (Millennium Pharmaceuticals, Inc., priority 2011, dated 2015)

What was measured:
[1] = test system: HL-60 disseminated xenograft; assay: HL-60 disseminated xenograft model, survival; assay type: in vivo, female mice CB-17 SCID; conditions: MLN4924 180 mg/kg and/or azacitidine 10 mg/kg s.c. on days 22, 25, 29, 32, 36, 39; for Mean survival time: Vehicle 48.1
Description: Test subjects. […] On day 20 post-inoculation, mice were randomized into groups of 10. Starting on day 22, mice were dosed subcutaneously with vehicle, 180 mg/kg MLN4924, 10 mg/kg azacitidine, or the combination of 180 mg/kg MLN4924 and 10 mg/kg azacitidine, using the same twice-weekly schedule as described in the subcutaneous xenograft experiments (dosing on days 22, 25, 29, 32, 36, 39). The mice were monitored at least twice weekly for body weight loss and signs of disease, including paresis or paralysis of hind limbs and emergence of palpable and internal solid tumors. The day on which an animal died or was sacrificed due to disease burden was recorded.
To determine synergy in the survival times, the mean survival times and corresponding standard errors were computed for each treatment group.

[2] = test system: HL60 subcutaneous xenograft tumors; assay: HL-60 subcutaneous xenograft model, tumor growth and synergy; conditions: s.c. Days 1, 4, 8, 11, 15 and 18; FIG. 2
[3] = test system: THP-1 subcutaneous xenograft tumors; assay: THP-1 subcutaneous xenograft model, tumor growth and synergy; conditions: s.c. Days 1, 4, 8, 11, 15 and 18; FIG. 3
[4] = test system: OCI-M2 subcutaneous xenograft tumors; assay: OCI-M2 subcutaneous xenograft model, tumor growth and synergy; conditions: s.c. Days 1, 4, 8, 11, 15 and 18; FIG. 4
[5] = test system: THP-1
Description: Normalization. […] After normalization, the controls were discarded.

SMILES	extension of mean survival time compared to the control group [1]	Mean survival time [1]	effect on tumor growth [2]	effect on tumor growth [3]	effect on tumor growth [4]	single agent activity [5]
NS(=O)(=O)OC[C@@H]1C[C@@H](n2ccc3c(N[C@H]4CCc5ccccc54)ncnc32)C[C@@H]1O [MLN4924, ((1S,2S,4R)-4-(4-((1S)-2,3-dihydro-1H-inden-1-ylamino)-7H-pyrrolo[2,3-d]-pyrimidin-7-yl)-2-hydroxycyclopentyl)methyl sulfamate]	8.4 days	56.5 days	marginal effect on tumor growth	inhibited tumor growth	inhibited tumor growth	–
Nc1ncn([C@@H]2O[C@H](CO)[C@@H](O)[C@H]2O)c(=O)n1 [azacitidine, 4-amino-1-β-D-ribofuranosyl-s-triazin-2(1H)-one]	21.1 days	69.2 days	marginal effect on tumor growth	marginal effect on tumor growth	inhibited tumor growth	–
Nc1ncn([C@H]2C[C@H](O)[C@@H](CO)O2)c(=O)n1 [decitabine, 4-amino-1-(2-deoxy-β-D-erythropentofuranosyl)-1,3,5-triazin-2(1H)-one]	–	–	–	–	–	lack of single agent activity
